In patent publication US12370183B2, “Compositions and methods for treating malaria” (Rutgers, The State University of New Jersey, priority 2020, dated 2025) one finds EC50 data, which are given here for 25 compounds.

Common to all, as to format: cell-based
Series [1] relates to 3D7 strain of Plasmodium falciparum. As to the kind of experiment: Potency in the 3D7 strain of Plasmodium falciparum (EC50). Conditions: Plasmodium falciparum. The source says:
(§1) The present invention relates to methods of treating malaria with tetrahydrobenzonaphtyridine carboxanilide (TBN) derivatives and related pyrrolinones and hydrolysis products thereof. These compounds are active against Plasmodium falciparum strains that are resistant to multiple drugs currently on the market. The present invention further relates to novel compounds and pharmaceutical compositions comprising such compounds. The compounds have been synthesized and tested for their potency in the 3D7 strain of Plasmodium falciparum. Their cytotoxicity was also tested in the BJ human fibroblast line. No compounds show significant cytotoxicity.
(§2) A high-throughput screen performed against the Plasmodium parasite. About 8,000 compounds were screened. Each hit was tested against resistant P. falciparum variants K1, V1S, D10DD, ATP4 1247, and C2B. Potency against these assays assured that the chemotype acts through a mechanism distinct from that of halofantrine, chloroquine, mefloquine, pyrimethamine, proguanil, atovaquone, and (+)SJ733. The toxicity of the compounds was also measured by testing their lethality against a BJ cell line (human fibroblasts). No TBNs were toxic. A structure activity investigation was performed in order to improve the EC50 of the TBNs to the single-digit nanomolar range, as well as to increase the water solubility.
(§3) Substituents were installed at N−2 by using a variety of methods. Reductive alkylation (Abdel-Magid, A. F.; Mehrman, S. J. A Review on the Use of Sodium Triacetoxyborohydride in the Reductive Amination of Ketones and Aldehydes. Org. Process Res. Dev. 2006, 10 (5), 971-1031) was a dependable technique that produced over fifteen analogues. Conjugate additions and nucleophilic substitutions provided most of the others. A type of reductive alkylation that uses carboxylic acids instead of aldehydes (the Beller reduction) led to two analogues (Sorribes, I.; Junge, K.; Beller, M. Direct Catalytic N-Alkylation of Amines with Carboxylic Acids. J. Am. Chem. Soc. 2014, 136 (40), 14314-14319. Some of the compounds listed were synthesized through other means, or were derived from other TBNs. Compounds 66 and 128 were produced by the amidation of acids 132 and 133, which had the corresponding substitution already installed. TBNs 93, and 94 were produced from the Pfitzinger products formed from the condensation of isatin with (R)-1-(1-phenylethyl)piperidin-4-one (134) and (S)-1-(1-phenylethyl)piperidin-4-one (135), respectively.

Another series can be described thus: in vitro. The conditions noted are these: human.
Description: as §1, §2

For series [2], the system named is resistant P. falciparum variant K1. Kind of series: Potency against resistant P. falciparum variant K1 (EC50). Conditions: Plasmodium falciparum, K1, read-out: K1 EC50 (μM). On the procedure:
as §2, §3

Where [3] appears, read: 3D7, read-out: 3D7 Mean EC50 (μM).
Setting [4] is: 3D7, read-out: 3D7 Mean EC50 of the TBN (μM).

Where two headings read alike, the source gives them in different places. Some results are limits rather than exact numbers.

Take `O=C(Nc1ccc(Cl)cc1)c1c2c(nc3ccc(Cl)cc13)CCN(CCc1ccccc1)C2` [Compound 168, 8-Chloro-N-(4-chlorophenyl)-2-phenethyl-1,2,3,4-tetrahydrobenzo[b][1,6]naphthyridine-10-carboxamide]: the EC50 (commonly the concentration at which the effect is half-maximal) in series [1] (setting [3]) was below 0.0348 µM; in the series “in vitro”, above 24000 nM.

`O=C1c2c3c(nc4cc(Cl)ccc24)CCN(CCc2ccccc2)C3N1c1ccc(Br)cc1` (centres unmarked) [Compound 175, 2-(4-Bromophenyl)-8-chloro-3-phenethyl-2a,3,4,5-tetrahydrobenzo[b]pyrrolo[4,3,2-de][1,6]naphthyridin-1(2H)-one]: the EC50 is below 0.00192 µM in series [1] (setting [3]) and 15200 ± 8470 nM in “in vitro”.

Take `O=C(Nc1ccc(Cl)cc1)c1c2c(nc3cc(Cl)ccc13)CCN(CCc1ccccc1)C2` [Compound 165, 7-Chloro-N-(4-chlorophenyl)-2-phenethyl-1,2,3,4-tetrahydrobenzo[b][1,6]naphthyridine-10-carboxamide]: the results for the EC50 (in series [1] (setting [3]); in “in vitro”) were below 0.00809 µM and above 24000 nM, respectively.

With `COc1ccc(NC(=O)c2c3c(nc4ccc(Cl)cc24)CCN(CCc2ccccc2)C3)cc1OC` [Compound 170, 8-Chloro-N-(3,4-dimethoxyphenyl)-2-phenethyl-1,2,3,4-tetrahydrobenzo[b][1,6]naphthyridine-10-carboxamide], the results for the EC50 (in series [1] (setting [3]); in the series “in vitro”) were 0.116 ± 0.025 µM and above 24000 nM, respectively.

For the compound `O=C(Nc1ccc(F)c(F)c1)c1c2c(nc3c1CN(Cc1ccccc1)CC3)CCCC2` [Compound 137, 2-Benzyl-N-(3,4-difluorophenyl)-1,2,3,4,6,7,8,9-octahydrobenzo[b][1,6]naphthyridine-10-carboxamide], the EC50 in series [1] (setting [3]) was 0.0949 ± 0.0266 µM; in series [1] (setting [4]), above 3.49 µM; in series [2] it was 0.279 µM.

Regarding `O=C(Nc1ccc(F)c(F)c1)c1c2c(nc3ccccc13)CCN(CCCO)C2` [Compound 122, N-(3,4-Difluorophenyl)-2-(3-hydroxypropyl)-1,2,3,4-tetrahydrobenzo[b][1,6]naphthyridine-10-carboxamide], the results for the EC50 in series [1] (setting [3]) and in series [2] were 6.81 ± 2.54 µM and 4.64 ± 1.55 µM, respectively.

For `CCN1CCc2nc3c(c(C(=O)Nc4ccc(F)c(F)c4)c2C1)CCCC3` [Compound 138, N-(3,4-Difluorophenyl)-2-ethyl-1,2,3,4,6,7,8,9-octahydrobenzo[b][1,6]naphthyridine-10-carboxamide], the EC50 in series [1] (setting [3]) was 0.715 ± 0.29 µM; in series [1] (setting [4]), above 12.2 µM; in series [2], 0.64 µM.

For `Cc1nc(CN2CCc3nc4ccccc4c(C(=O)Nc4ccc(F)c(F)c4)c3C2)cs1` [Compound 112, N-(3,4-Difluorophenyl)-2-((2-methylthiazol-4-yl)methyl)-1,2,3,4-tetrahydrobenzo[b][1,6]naphthyridine-10-carboxamide], the EC50 worked out at 1.03 ± 0.549 µM in series [1] (setting [3]) and 0.641 µM in series [2].

As to `NCCN1CCc2nc3ccccc3c(C(=O)Nc3ccc(F)c(F)c3)c2C1` [Compound 129, 2-(2-Aminoethyl)-N-(3,4-difluorophenyl)-1,2,3,4-tetrahydrobenzo[b][1,6]naphthyridine-10-carboxamide], the EC50 in series [1] (setting [3]) was found to be 14.5 ± 4.73 µM; in series [2], 9.46 ± 0.982 µM.

As for `O=C(Nc1ccc(F)c(F)c1)c1c2c(nc3ccccc13)CCN(Cc1ccc(F)cc1)C2` [Compound 107, N-(3,4-Difluorophenyl)-2-(4-fluorobenzyl)-1,2,3,4-tetrahydrobenzo[b][1,6]naphthyridine-10-carboxamide], the EC50 in series [1] (setting [3]) stood at 0.569 µM; in series [2], 0.401 µM.

As for `O=C(Nc1ccc(F)c(F)c1)c1c2c(nc3ccccc13)CCN(CCOC1CCCCO1)C2` (centres unmarked) [Compound 102, N-(3,4-Difluorophenyl)-2-(2-((tetrahydro-2H-pyran-2-yl)oxy)ethyl)-1,2,3,4-tetrahydrobenzo[b][1,6]naphthyridine-10-carboxamide], the results for the EC50 in series [1] (setting [3]) and in series [2] were 0.441 ± 0.156 µM and 0.178 ± 0.0436 µM, respectively.

Consider `COC(=O)C(C)CN1CCc2nc3ccccc3c(C(=O)Nc3ccc(F)c(F)c3)c2C1` (centres unmarked) [Compound 97, Methyl 3-(10-((3,4-difluorophenyl)carbamoyl)-3,4-dihydrobenzo[b][1,6]naphthyridin-2(1H)-yl)-2-methylpropanoate], for which the EC50 in series [1] (setting [3]) is 0.328 ± 0.17 µM; in series [2] it was 0.185 µM.

For `O=C(Nc1ccc(F)c(F)c1)c1c2c(nc3ccccc13)CCN(Cc1cccnc1)C2` [Compound 106, N-(3,4-Difluorophenyl)-2-(pyridin-3-ylmethyl)-1,2,3,4-tetrahydrobenzo[b][1,6]naphthyridine-10-carboxamide], the EC50 stood at 0.475 ± 0.163 µM in series [1] (setting [3]) and 0.236 µM in series [2].

In the case of `CC(C)CN1CCc2nc3ccccc3c(C(=O)Nc3ccc(F)c(F)c3)c2C1` [Compound 95, N-(3,4-Difluorophenyl)-2-isobutyl-1,2,3,4-tetrahydrobenzo[b][1,6]naphthyridine-10-carboxamide], the values for the EC50 in series [1] (setting [3]) and in series [2] were 0.154 ± 0.162 µM and 0.121 µM, respectively.

As for `O=C(Nc1ccc(F)c(F)c1)c1c2c(nc3ccccc13)CCN(CCc1ccccc1)C2` [Compound 91, N-(3,4-Difluorophenyl)-2-phenethyl-1,2,3,4-tetrahydrobenzo[b][1,6]naphthyridine-10-carboxamide], the EC50 stood at 0.117 ± 0.102 µM in series [1] (setting [3]) and 0.0839 µM in series [2].

`CC(C)(O)CCN1CCc2nc3ccccc3c(C(=O)Nc3ccc(F)c(F)c3)c2C1` [Compound 116, N-(3,4-Difluorophenyl)-2-(3-hydroxy-3-methylbutyl)-1,2,3,4-tetrahydrobenzo[b][1,6]naphthyridine-10-carboxamide]: the EC50 in series [1] (setting [3]) was found to be 2.01 ± 0.277 µM; in series [2], 1.44 ± 0.337 µM.

`O=C(O)CCN1CCc2nc3ccccc3c(C(=O)Nc3ccc(F)c(F)c3)c2C1` [Compound 131, 3-(10-((3,4-Difluorophenyl)carbamoyl)-3,4-dihydrobenzo[b][1,6]naphthyridin-2(1H)-yl)propanoic acid]: the EC50 in series [1] (setting [3]) and in series [2] was above 19.2 µM in each case.

As for `O=C(Nc1ccc(F)c(F)c1)c1c2c(nc3ccccc13)CCN(Cc1cccc(F)c1)C2` [Compound 100, N-(3,4-Difluorophenyl)-2-(3-fluorobenzyl)-1,2,3,4-tetrahydrobenzo[b][1,6]naphthyridine-10-carboxamide], the EC50 in series [1] (setting [3]) was determined as 0.412 ± 0.291 µM; in series [2] it was 0.161 µM.

In the case of `O=C(Nc1ccc(F)c(F)c1)c1c2c(nc3ccccc13)CCN(CCCC(F)(F)F)C2` [Compound 108, N-(3,4-Difluorophenyl)-2-(4,4,4-trifluorobutyl)-1,2,3,4-tetrahydrobenzo[b][1,6]naphthyridine-10-carboxamide], the EC50 was 0.665 ± 0.734 µM in series [1] (setting [3]) and 0.241 µM in series [2].

Regarding `CC(c1ncccn1)N1CCc2nc3c(c(C(=O)Nc4ccc(F)c(F)c4)c2C1)CCCC3` (centres unmarked) [Compound 139, N-(3,4-Difluorophenyl)-2-(1-(pyrimidin-2-yl)ethyl)-1,2,3,4,6,7,8,9-octahydrobenzo[b][1,6]naphthyridine-10-carboxamide], the values for the EC50 in series [1] (setting [3]), in series [1] (setting [4]) and in series [2] were 0.849 ± 0.52 µM, 0.453 ± 0.238 µM and 0.266 ± 0.0462 µM, respectively.

`O=C(Nc1ccc(F)c(F)c1)c1c2c(nc3ccccc13)CCN(Cc1ccncc1)C2` [Compound 111, N-(3,4-Difluorophenyl)-2-(pyridin-4-ylmethyl)-1,2,3,4-tetrahydrobenzo[b][1,6]naphthyridine-10-carboxamide]: the EC50 in series [1] (setting [3]) was 0.983 ± 0.133 µM; in series [2], 0.647 µM.

For `O=C(Nc1ccc(F)c(F)c1)c1c2c(nc3ccccc13)CCN(Cc1ccccn1)C2` [Compound 105, N-(3,4-Difluorophenyl)-2-(pyridin-2-ylmethyl)-1,2,3,4-tetrahydrobenzo[b][1,6]naphthyridine-10-carboxamide], the EC50 in series [1] (setting [3]) turned out to be 0.456 ± 0.0964 µM; in series [2], 0.129 µM.

Regarding `CN(C)CCCN1CCc2nc3ccccc3c(C(=O)Nc3ccc(F)c(F)c3)c2C1` [Compound 126, N-(3,4-Difluorophenyl)-2-(3-(dimethylamino)propyl)-1,2,3,4-tetrahydrobenzo[b][1,6]naphthyridine-10-carboxamide], the EC50 in series [1] (setting [3]) is 9.46 ± 2.17 µM; in series [2], above 19.2 µM.

Regarding `CCCCN1CCc2nc3ccccc3c(C(=O)Nc3ccc(F)c(F)c3)c2C1` [Compound 99, 2-Butyl-N-(3,4-difluorophenyl)-1,2,3,4-tetrahydrobenzo[b][1,6]naphthyridine-10-carboxamide], the EC50 is 0.37 ± 0.376 µM in series [1] (setting [3]) and 0.102 µM in series [2].

Consider `CN(C)CCN1CCc2nc3ccccc3c(C(=O)Nc3ccc(F)c(F)c3)c2C1` [Compound 124, N-(3,4-Difluorophenyl)-2-(2-(dimethylamino)ethyl)-1,2,3,4-tetrahydrobenzo[b][1,6]naphthyridine-10-carboxamide], for which the EC50 in series [1] (setting [3]) was 8.54 ± 1.84 µM; in series [2], above 19.2 µM.
